Activity calls are given as the source filed them.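 Rule for the calls: active = AC50 no more than ten times the top concentration tested, that is within one log above it; inconclusive = flat curve fit with activity between 30% and 70%, or invalid poor fit; inactive = AC50 beyond ten times the top tested dose.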
Tested on: S. cerevisiae Mot1-301 ts growth rescue, BacTiter-Glo ATP luminescence
Test: growth rescue of Mot1-301 ts yeast, confirmation, SUMOylation pathway inhibitor project, whole organism, S. cerevisiae, Mot1-301 ts mutant, luminescence, dose retest (AID 463204);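 note: growth at restrictive 38.5 degrees C of Mot1-301 OY566 strain; actives raise luminescence by restoring growth of the ts mutant at high temperature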

Structure (SMILES) | AC50
CC(C)c1cc(N2CCOCC2)n2ncc(-c3ccccc3)c2n1 | > 42 µM (inactive)
Cc1ccc(-c2csc(C3=C(O)CN(NC(=O)c4ccco4)C3=N)n2)cc1 | > 42 µM (inactive)
Cc1cc([N+](=O)[O-])ccc1NC(=O)CSc1nccc(=O)[nH]1 | > 42 µM (inactive)
O=C(Nc1cnn(Cc2ccc(Cl)cc2)c1)c1ccc([N+](=O)[O-])cc1 | > 42 µM (inactive)
N#C/C(=C\Nc1ccc2c(c1)OCCO2)c1nc2ccccc2[nH]1 | > 42 µM (inactive)
CCN(CC)S(=O)(=O)c1cc(NC(=O)COC(=O)CCc2nc3ccccc3s2)ccc1C | > 42 µM (inactive)
Cc1ccccc1-c1nnc(SCc2ccc(F)cc2)o1 | > 42 µM (inactive)
Cc1cc(S(=O)(=O)NCC(C)C)ccc1OCC(=O)N1CCOCC1 | > 42 µM (inactive)
Cc1ccc(NC(=S)NNC(=O)c2ccc(N3CCOCC3)c([N+](=O)[O-])c2)cc1C | > 42 µM (inactive)
CN(C(=O)C1CCCO1)c1nnc(-c2cnccn2)s1 (configuration not stated) | > 42 µM (inactive)
COc1ccccc1C(=O)NCCNc1ccc([N+](=O)[O-])cc1Cl | > 110 µM (inactive)
O=C(O)/C=C/c1cccnc1 | > 42 µM (inactive)
Cc1ccc(S(=O)(=O)Oc2ccc(/C=C3\N=C(c4cccc(C)c4)OC3=O)cc2)cc1 | > 42 µM (inactive)
O=C(NCc1csc(-c2cccs2)n1)Nc1ccc(F)cc1F | > 42 µM (inactive)
COc1cc(C(=O)NCCC2=CCCCC2)ccc1OC1CCN(C(C)=O)CC1 | > 42 µM (inactive)
COc1ccccc1CNc1ncnc2c1nnn2Cc1ccccc1 | 40.1 µM
Cn1c(-c2sc3cc(C(F)(F)F)cnc3c2-c2cccs2)n[nH]c1=S | > 42 µM (inactive)
O=C(COc1ccc(-n2cnnn2)cc1)NCCc1ccc(F)cc1 | > 42 µM (inactive)
CC(C)C1=CC(=Nc2ccc(S(N)(=O)=O)cc2)C=C(C(C)C)C1=O | > 42 µM (inactive)
O=C1Nc2ccccc2/C1=C/c1ccc([N+](=O)[O-])cc1 | > 42 µM (inactive)
O=C(c1ccc(COc2ccccc2Cl)o1)N1N=C(C(F)F)CC1(O)C(F)F (configuration not stated) | > 42 µM (inactive)
Cc1nc2ccccc2c2ncccc12 | > 42 µM (inactive)
O=S(=O)(O)c1ccc(N=NNc2ccc(Br)cc2)cc1 | > 42 µM (inactive)
CC(=O)c1ccc(Nc2cc(C)nc3ccccc23)cc1 | > 42 µM (inactive)
CCN1C(=S)N[C@@H](CCc2ccccc2)C(C(=O)OC)=C1C | > 42 µM (inactive)
COc1ccc(N(CC(=O)NCc2ccc(C)cc2)S(=O)(=O)c2c(C)nn(C)c2C)cc1 | > 42 µM (inactive)

Structure (SMILES) | AC50
O=C(c1cccs1)N(C(=O)c1cccs1)c1ccc(Br)cn1 | 1.35 µM
Cc1cccn2c(=O)c3cc(C(=O)NCc4cccnc4)c(=N)n(C(C)C)c3nc12 | > 42 µM (inactive)
Cc1cc(C(F)(F)F)nc(SCC(=O)Nc2cc(C)on2)n1 | > 42 µM (inactive)
CN(CCOc1ccc(-c2ccn(S(=O)(=O)c3cccc4ccccc34)n2)cc1)c1ccccn1 | > 42 µM (inactive)
COc1ccc(NC(=O)CN(C)C(=O)c2cc(C)on2)cc1 | > 42 µM (inactive)
CCCCCCCCc1nc(SCC(C)=O)n[nH]1 | > 42 µM (inactive)
O=C1CCC(=O)N1CCOP1(=O)COc2ccccc2OC1 | > 42 µM (inactive)
COc1cc(OC)c(C(=O)N2CCN(c3ccccn3)CC2)cc1OC | > 42 µM (inactive)
CCOC(=O)C1CCN(CC(O)COc2ccc(C(C)(C)C)cc2)CC1 (configuration not stated) | > 42 µM (inactive)
COc1ccccc1CNC(=O)C1CCC(=O)N1C(C)C (configuration not stated) | > 42 µM (inactive)
O=C1CC(c2ccccc2)C(=O)N1c1cccc(O)c1 (configuration not stated) | > 42 µM (inactive)
CCOc1ccc(CCNC(=O)COC(=O)COc2ccc(C(C)=O)cc2)cc1OCC | > 42 µM (inactive)
CC(NC(=O)OCc1ccccc1)C(=O)N1CC(O)CC1C(=O)O (configuration not stated) | > 21 µM (inactive)
Cc1cc(C(=O)NN)n[nH]1 | > 42 µM (inactive)
Cc1sc(NC(=O)c2ccc(Br)s2)c(C(N)=O)c1C | > 42 µM (inactive)
Nc1nc(SCc2nc3scc(-c4cccs4)c3c(=O)[nH]2)n[nH]1 | > 42 µM (inactive)
CS(=O)(=O)N(CC(=O)Nc1ccccc1C(=O)N1CCCC1)c1ccc2c(c1)OCO2 | > 42 µM (inactive)
CC(C)(C)NC(=S)NCc1cccnc1 | > 42 µM (inactive)
NC(=O)c1cccc2cc3ccccc3cc12 | > 42 µM (inactive)
O=C(CSc1nnc2ccccn12)NNC(=O)c1ccc(Cl)cc1 | > 42 µM (inactive)
CC(C)C(O)(C(=O)NNc1ccccc1)C(C)C | > 42 µM (inactive)
COc1ccc(/C=C(\C#N)C(=O)NCCCn2ccnc2)cc1 | > 42 µM (inactive)
Nc1nc2ccccc2cc1-c1cccs1 | > 42 µM (inactive)
CCCC1Cc2c(sc3ncnc(N)c23)CO1 (configuration not stated) | > 42 µM (inactive)
COc1ccc(NC(=O)C(c2ccccc2)N2CCN(c3ccccn3)CC2)cc1Cl (configuration not stated) | > 42 µM (inactive)
COc1ccc([N+](=O)[O-])c2c(=O)ccoc12 | > 42 µM (inactive)

Structure (SMILES) | AC50
COc1ccc2c(c1)[C@H]1[C@H](CO2)[C@H](c2ccccc2)[C@]2(C)C(=O)Nc3ccc(F)cc3C(=O)N12 | 5.38 µM
COc1ccccc1N1CCN(C(=O)c2sc3ncnc(N4CCN(c5ccccn5)CC4)c3c2C)CC1 | > 42 µM (inactive)
O=C(N/N=C/C(Br)=C/c1ccccc1)c1cccnc1 | 21.5 µM
CCCCn1c2nc3ccccc3nc2c2c(=O)n(CCC)cnc21 | > 42 µM (inactive)
O=C(CN1CCN(Cc2ccc(F)cc2)CC1)NCc1ccccc1 | > 42 µM (inactive)
O=C(CS(=O)c1ccc(C(F)(F)F)cc1[N+](=O)[O-])Oc1ccc(Cl)cc1 (configuration not stated) | 1.47 µM
CNC(=O)c1ccccc1S(=O)c1ccccc1COC(C)=O (configuration not stated) | > 42 µM (inactive)
O=C(CCC1CCCN(C(=O)Cc2cccc(F)c2)C1)N1CCN(c2ccccn2)CC1 (configuration not stated) | > 42 µM (inactive)
COc1ccc(NC(=O)Nc2ccc(OC)cc2)cc1 | > 42 µM (inactive)
O=C(NCC1CCCO1)c1nn2c(C(F)(F)F)cc(-c3cc(Br)cs3)nc2c1Br (configuration not stated) | > 42 µM (inactive)
CCOC(=O)Cn1c(=O)oc2cc(S(=O)(=O)NC(C)(C)CC)ccc21 | > 42 µM (inactive)
COc1ccc(C2=Nn3c(nnc3-c3ccco3)SC2)cc1 | > 42 µM (inactive)
CCCC(=O)Oc1c(S(=O)(=O)c2ccc(C)cc2)c(C)nn1C(C)(C)C | > 42 µM (inactive)
O=C(NNc1ccccc1)C(CCO)C(=O)NNc1ccccc1 | > 42 µM (inactive)
CCOc1ccc(CN(C)C(C)C(=O)NCc2ccccc2)cc1 (configuration not stated) | > 42 µM (inactive)
COc1ccc2c(c1)[C@H]1[C@H](CO2)[C@H](c2ccccc2)[C@]2(C)C(=O)Nc3cc(F)ccc3C(=O)N12 | 7.87 µM
CNc1csc(C)c(C)c1=O | > 42 µM (inactive)
CCCNC(=O)CN(c1ccc(F)cc1)S(=O)(=O)c1ccc2c(c1)OCCO2 | > 42 µM (inactive)
Cc1ccc(NS(=O)(=O)c2c(C)[nH]c(C)c2C(=O)N2CCCCC2)c(Cl)c1 | > 42 µM (inactive)
CCOP(=O)(OCC)C(NC(=O)c1cccc(C)c1)C(Cl)(Cl)Cl (configuration not stated) | > 42 µM (inactive)
C=CCOC(=O)C(C#N)c1nc2ccccc2nc1N1CCN(Cc2ccccc2)CC1 (configuration not stated) | > 42 µM (inactive)
OC1(c2ccc(F)cc2)CC2CCC(C1)N2Cc1nnnn1C1CCCCC1 (configuration not stated) | > 42 µM (inactive)
CCCc1nnc(NC(=O)c2cn(CC)c3cc(N4CCN(C)CC4)c(F)cc3c2=O)s1 | > 21 µM (inactive)
CCCc1nc(NCc2ccccc2)c(C#N)c2c1CCCC2 | > 42 µM (inactive)
CN(Cc1cccnc1)Cc1cn[nH]c1-c1ccc(-c2ccccc2)cc1 | > 42 µM (inactive)
CC1(C)CCc2cc(CN3CCN(c4ccccn4)CC3)ccc2O1 | > 42 µM (inactive)

Structure (SMILES) | AC50
Cc1cc2c(cc1C)-c1nnc(-c3ccc4ccccc4n3)n1C(C)(C)C2 | > 42 µM (inactive)
O=C(c1ccc(OC2CCN(CCc3ccccc3)CC2)cc1)N1CCCC1 | > 42 µM (inactive)
CC(C)(C)NC(=O)C1Cc2ccccc2CN1S(=O)(=O)c1ccc(F)cc1 (configuration not stated) | > 42 µM (inactive)
CCc1ccccc1NC(=S)NNC(=O)c1ccccc1Cl | > 42 µM (inactive)
COc1ccc2[nH]c(C(=O)N/N=C/c3ccccc3OC)cc2c1 | > 42 µM (inactive)
CCC(c1nc2ccccc2c(=O)n1-c1nc2ccccc2s1)N1C(=O)c2ccccc2C1=O (configuration not stated) | > 42 µM (inactive)
O=C(CSc1ncccn1)c1ccccc1Br | > 42 µM (inactive)
c1ccc(OCCCc2nc(-c3cccnc3)no2)cc1 | > 42 µM (inactive)
Cc1cc(C(=O)NNC(=O)c2ccc(C)s2)c(C)o1 | > 42 µM (inactive)
CC1=NC2(CCCc3c2no[n+]3[O-])N(O)C1(C)C (configuration not stated) | > 42 µM (inactive)
COc1ccc(CN(C)S(=O)(=O)c2nnc(NC(=O)c3ccc(C)cc3)s2)cc1OC | > 42 µM (inactive)
CC1(C)CC(=O)C=C(OC(=O)c2ccc(Cl)cc2)C1 | > 42 µM (inactive)
O=C(O)c1cccc(N2C(=O)C3C4C=CC(C4=C(c4ccccc4)c4ccccc4)C3C2=O)c1 (configuration not stated) | > 42 µM (inactive)
Cc1nn(CC(=O)Nc2ccccn2)c(C)c1[N+](=O)[O-] | > 42 µM (inactive)
COc1ccccc1CNC(=O)CCC(=O)Nc1nnc(C(C)C)s1 | > 42 µM (inactive)
COC(=O)c1cc(Cl)c(NC(=O)C(C)C)cc1OC | > 42 µM (inactive)
O=C(COC(=O)/C=C/c1ccco1)Nc1ncc(C(F)(F)F)cc1Cl | > 42 µM (inactive)
C=CCC(NCCCO)c1cccc(OC)c1OC (configuration not stated) | > 42 µM (inactive)
COCc1nnc(NC(=O)CC(C)C)s1 | > 42 µM (inactive)
N#Cc1cccc(NC(=O)CSc2n[nH]c(=O)[nH]c2=O)c1 | > 42 µM (inactive)
CCn1nccc1C(=O)Nc1nccs1 | > 42 µM (inactive)
O=C(c1ccncc1)N(Cc1ccccc1)Cc1nc2ccccc2c(=O)[nH]1 | > 42 µM (inactive)
Cc1n[nH]c(=O)c2c(NC(=O)COC(=O)Cc3ccc(Cl)cc3Cl)oc(C)c12 | > 21 µM (inactive)
CC(C)(C)C1c2[nH]c3ccccc3c2CCN1Cc1cccc(OCCO)c1 (configuration not stated) | > 42 µM (inactive)

Source: PubChem BioAssay AID463204 (Broad Institute, 2010)
